Data: patent publication US20180153995A1, “USE OF ANTIMICROBIAL POLYMERS FOR RE-SENSITIZATION OF MICROORGANISMS UPON EMERGENCE OF RESISTANCE TO ANTI-MICROBIAL AGENTS” (Technion Research & Development Foundation Limited, priority 2008, published 2018)
Read-outs that look alike come from different tables or passages of the source.

Legend:
S. aureus 15819 = assay: Antibiotic MIC by microdilution with or without sub-MIC polymer; format: cell-based, Staphylococcus aureus; details: S. aureus 15819
[1] = test system: E. coli K-12 efflux knockout mutant; format: cell-based, Escherichia coli; details: E. coli AG100A (efflux−); for Antibiotic MIC in presence of C12K(NC8K)7NH2 (SEQ ID NO: 4), +¼ MIC: polymer at ¼ of its MIC (Table 16); for Antibiotic MIC in presence of C12K(NC8K)7NH2 (SEQ ID NO: 4), +½ MIC: polymer at ½ of its MIC (Table 16); for Antibiotic MIC in presence of C12K(NC8K)7NH2 (SEQ ID NO: 4), +⅓ MIC: polymer at ⅓ of its MIC (Table 16)
Method: (§1) MICs were determined by microdilution susceptibility testing in 96-well plates (by Nunc) using inocula of 10^5 bacteria per ml. Cell populations were evaluated by optical density measurements at 620 nm and were calibrated against a set of standards. Hundred (100) μl of a bacterial suspension were added to 100 μl of culture medium (control) or to 100 μl of culture medium containing various polymer concentrations in 2-fold serial dilutions. Inhibition of proliferation was determined by optical density measurements at 620 nm after an incubation period of 24 hours at 37° C.

P. aeruginosa 8732 = assay: Antibiotic MIC by microdilution with or without sub-MIC polymer; format: cell-based, Pseudomonas aeruginosa; details: P. aeruginosa 8732
Method: as §1
Inhibition of proliferation was determined by optical density measurements at 620 nm after an incubation period of 24 hours at 37° C.

P. mirabilis 1285 [2] = format: cell-based, Proteus mirabilis; details: no polymer (None), Table 12
Method: as §1
100 μl of a bacterial suspension were added to 100 μl of culture medium (control) or to 100 μl of culture medium containing various antibiotic and C14(9-ene)KKNC12KNH2 (SEQ ID NO: 5) concentrations in 2-fold serial dilutions. Inhibition of proliferation was determined by optical density measurements at 620 nm after an incubation period of 24 hours at 37° C.

P. mirabilis 1285 [3] = format: cell-based, Proteus mirabilis
[4] = +¼ MIC (1.6 μM) C12(5-ene)KKNC12KNH2
[5] = +¼ MIC (1.6 μM) C12K(KNC12K)3NH2
[6] = +⅓ MIC (2.1 μM) C12K(KNC12K)3NH2

Compound	Antibiotic MIC (S. aureus 15819; [4])	Antibiotic MIC (S. aureus 15819; [5])	Antibiotic MIC (S. aureus 15819; +¼ MIC (1.6 μM) C12KKNC12KNH2)	Antibiotic MIC (S. aureus 15819; +½ MIC (3.12 μM) C12KKNC12KNH2)	Antibiotic MIC (S. aureus 15819; [6])	Antibiotic MIC (S. aureus 15819; +⅓ MIC (2.1 μM) C12KKNC12KNH2)	Antibiotic MIC (S. aureus 15819; no polymer (None), Table 8)	Antibiotic MIC (S. aureus 15819; no polymer (None), Table 11)	Antibiotic MIC (S. aureus 15819; no polymer (None), Table 13)	Antibiotic MIC, None ([1]; antibiotic alone (Table 16))	Antibiotic MIC, None ([1]; antibiotic alone (Table 17))	Antibiotic MIC in presence of C12K(NC8K)7NH2 (SEQ ID NO: 4), +¼ MIC [1]	Antibiotic MIC in presence of C12K(NC8K)7NH2 (SEQ ID NO: 4), +½ MIC [1]	Antibiotic MIC in presence of C12K(NC8K)7NH2 (SEQ ID NO: 4), +⅓ MIC [1]	further results
CN(C)[C@@H]1C(O)=C(C(N)=O)C(=O)[C@@]2(O)C(O)=C3C(=O)c4c(O)cccc4[C@@](C)(O)[C@H]3C[C@@H]12 [Tetracycline, tetracycline]	0.25 µg/mL	0.5 µg/mL	0.5 µg/mL	0.5 µg/mL	0.25 µg/mL	0.5 µg/mL	0.25 µg/mL	0.5 µg/mL	0.5 µg/mL	0.5 µg/mL	0.5 µg/mL	0.5 µg/mL	0.25 to 0.5 µg/mL	0.5 µg/mL	–
gentamicin	1 µg/mL	1 µg/mL	1 µg/mL	1 µg/mL	1 µg/mL	1 µg/mL	1 µg/mL	1 µg/mL	1 µg/mL	4 to 8 µg/mL	4 to 8 µg/mL	4 µg/mL	2 to 4 µg/mL	4 µg/mL	Antibiotic MIC (S. aureus 15819; +½ MIC (3.12 μM) C12(5-ene)KKNC12KNH2): 1 µg/mL; Antibiotic MIC (S. aureus 15819; +½ MIC (3.12 μM) C12K(KNC12K)3NH2): 0.5 µg/mL; Antibiotic MIC (S. aureus 15819; +⅓ MIC (2.1 μM) C12(5-ene)KKNC12KNH2): 1 µg/mL; Antibiotic MIC (P. aeruginosa 8732; +¼ MIC (1.6 μM) C16(9-ene)KKNC12KNH2): 4 µg/mL; Antibiotic MIC (P. aeruginosa 8732; +½ MIC (3.12 μM) C16(9-ene)KKNC12KNH2): 4 µg/mL; Antibiotic MIC (P. aeruginosa 8732; +⅓ MIC (2.1 μM) C16(9-ene)KKNC12KNH2): 4 µg/mL; Antibiotic MIC (P. aeruginosa 8732; no polymer (None), Table 10): 4 µg/mL; Antibiotic MIC (P. mirabilis 1285 [2]): 32 µg/mL; Antibiotic MIC in presence of the OAK, +¼ MIC ([1]; the OAK at ¼ of its MIC (Table 17)): 4 µg/mL; Antibiotic MIC in presence of the OAK, +½ MIC ([1]; the OAK at ½ of its MIC (Table 17)): 4 µg/mL; Antibiotic MIC in presence of the OAK, +⅓ MIC ([1]; the OAK at ⅓ of its MIC (Table 17)): 4 µg/mL; Antibiotic MIC (P. mirabilis 1285 [3]; +¼ MIC (1.6 μM) C12K(KNC12K)2NH2): 32 µg/mL; Antibiotic MIC (P. mirabilis 1285 [3]; +½ MIC (3.12 μM) C12K(KNC12K)2NH2): 32 µg/mL; Antibiotic MIC (P. mirabilis 1285 [3]; +⅓ MIC (2.1 μM) C12K(KNC12K)2NH2): 32 µg/mL
